Activity calls are given as the source filed them. The calls are words filed in the database; no cut-off is given here.
How the values were obtained:
CAKI-1 [1] = test: Cytotoxicity against human CAKI-1 cells assessed as reduction in cell viability incubated for 3 days by MTT assay; assay type: functional, cell-based; conditions: for IC50: CAKI-1, 72 h; for Activity: time 3.0 day
[2] = biological target: T1, Mitotic checkpoint serine/threonine-protein kinase BUB1 beta (Homo sapiens, UniProt O60566); test: Destabilization of BUB1B in human CAKI-1 cells assessed as reduction in BUB1B protein level at 20 uM preincubated for 1 hrs followed by incubation under 45 degreeC for 3 mins by CETSA analysis (reference value: 1); assay type: cell-based; conditions: time 63.0 min
CAKI-1 [3] = test: Cytotoxicity against human CAKI-1 cells assessed as necrotic cell death incubated for 3 days by LDH assay; assay type: functional, cell-based; conditions: CAKI-1, 72 h
CAKI-1 [4] = test: Cytotoxicity against human CAKI-1 cells assessed as reduction in cell viability incubated for 1 day by MTT assay; assay type: functional, cell-based; conditions: CAKI-1, 24 h
[5] = Cytotoxicity against human HaCaT cells assessed as cell viability at 1 uM incubated for 1 day relative to control; assay type: toxicity, cell-based; conditions: read-out: Activity
CAKI-1 [6] = test: Induction of apoptosis in human CAKI-1 cells assessed as increase in cleaved caspase-3 protein level at 10 uM incubated for 1 day by Western blot analysis; assay type: functional, cell-based
CAKI-1 [7] = test: Induction of apoptosis in human CAKI-1 cells assessed as decrease in Bcl-2 protein level by measuring fold change at 10 uM incubated for 1 day by Western blot analysis (reference value: 1); assay type: functional
[8] = Downregulation of BUB1B protein expression level in human CAKI-1 cells at 10 uM incubated for 1 day by Western blot analysis (Rvb =1); assay type: functional
[9] = biological target: T1, Mitotic checkpoint serine/threonine-protein kinase BUB1 beta; test: Inhibition of recombinant BUB1B (unknown origin) incubated for 60 mins in presence of [gamma-33P]-ATP by microplate scintillation counter analysis
[10] = Cytotoxicity against human HaCaT cells assessed as cell viability at 5 uM incubated for 1 day relative to control; assay type: toxicity, cell-based; conditions: read-out: Activity
[11] = Downregulation of BUB1B protein expression level in human CAKI-1 cells at IC50 concentration incubated for 1 day by Western blot analysis (Rvb =1); assay type: functional
[12] = Cytotoxicity against human MRC5 cells assessed as cell viability at 1 uM incubated for 1 day relative to control; assay type: toxicity, cell-based; conditions: read-out: Activity
CAKI-1 [13] = test: Induction of apoptosis in human CAKI-1 cells assessed as increase in cleaved caspase-8 protein level at 10 uM incubated for 1 day by Western blot analysis; assay type: functional, cell-based
CAKI-1 [14] = test: Cytotoxicity against human CAKI-1 cells assessed as cell viability at 10 uM incubated for 1 day by MTT assay relative to control; assay type: functional; conditions: CAKI-1, 24 h, read-out: Activity
CAKI-1 [15] = test: Induction of apoptosis in human CAKI-1 cells assessed as increase in cleaved PARP level by measuring fold change at 10 uM incubated for 1 day by Western blot analysis (reference value: 1); assay type: functional
CAKI-1 [16] = test: Cytotoxicity against human CAKI-1 cells assessed as cell viability at 10 uM incubated for 3 day by MTT assay relative to control; assay type: functional; conditions: CAKI-1, 72 h, read-out: Activity
CAKI-1 [17] = test: Induction of apoptosis in human CAKI-1 cells assessed as increase in cleaved PARP level by measuring fold change at IC50 concentration incubated for 1 day by Western blot analysis (reference value: 1); assay type: functional
CAKI-1 [18] = test: Induction of apoptosis in human CAKI-1 cells assessed as decrease in Bcl-2 protein level by measuring fold change at IC50 concentration incubated for 1 day by Western blot analysis (reference value: 1); assay type: functional
[19] = Cytotoxicity against human MRC5 cells assessed as cell viability at 5 uM incubated for 1 day relative to control; assay type: toxicity, cell-based; conditions: read-out: Activity
CAKI-1 [20] = test: Induction of apoptosis in human CAKI-1 cells assessed as increase in cleaved caspase-9 protein level at 10 uM incubated for 1 day by Western blot analysis; assay type: functional, cell-based
CAKI-1 [21] = test: Cytotoxicity against human CAKI-1 cells assessed as reduction in cell viability at 10 uM by MTT assay; assay type: functional, cell-based; conditions: time 1-3 day

T1 sequence (O60566 whole entry): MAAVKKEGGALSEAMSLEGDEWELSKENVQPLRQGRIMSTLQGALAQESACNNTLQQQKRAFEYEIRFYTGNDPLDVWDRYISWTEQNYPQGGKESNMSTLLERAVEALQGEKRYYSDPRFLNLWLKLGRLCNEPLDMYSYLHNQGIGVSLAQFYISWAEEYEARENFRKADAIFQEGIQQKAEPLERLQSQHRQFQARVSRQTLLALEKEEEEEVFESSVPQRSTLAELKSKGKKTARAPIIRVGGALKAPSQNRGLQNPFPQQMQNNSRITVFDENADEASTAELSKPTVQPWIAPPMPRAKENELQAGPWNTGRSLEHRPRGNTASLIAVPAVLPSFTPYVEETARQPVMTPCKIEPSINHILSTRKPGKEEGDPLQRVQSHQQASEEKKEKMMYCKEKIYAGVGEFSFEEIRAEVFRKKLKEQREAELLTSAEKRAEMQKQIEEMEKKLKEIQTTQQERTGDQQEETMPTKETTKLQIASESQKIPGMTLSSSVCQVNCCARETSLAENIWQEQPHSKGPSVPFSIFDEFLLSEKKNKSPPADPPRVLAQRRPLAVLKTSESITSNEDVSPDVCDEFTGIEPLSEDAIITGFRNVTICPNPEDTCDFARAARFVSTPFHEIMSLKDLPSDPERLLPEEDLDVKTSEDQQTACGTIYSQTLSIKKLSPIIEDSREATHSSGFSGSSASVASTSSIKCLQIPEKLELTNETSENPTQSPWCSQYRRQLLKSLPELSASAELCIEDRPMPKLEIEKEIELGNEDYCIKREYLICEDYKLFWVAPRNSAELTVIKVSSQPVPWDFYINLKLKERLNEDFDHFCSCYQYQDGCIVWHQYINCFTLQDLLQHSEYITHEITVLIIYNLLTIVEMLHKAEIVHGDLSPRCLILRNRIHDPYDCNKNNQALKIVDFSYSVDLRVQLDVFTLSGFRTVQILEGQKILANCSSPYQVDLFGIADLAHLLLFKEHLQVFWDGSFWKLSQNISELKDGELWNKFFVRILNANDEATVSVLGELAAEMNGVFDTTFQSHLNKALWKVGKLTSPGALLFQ

COc1cc(Nc2ncc(C)c(Nc3cccc(S(=O)(=O)N4CCOCC4)c3)n2)cc(OC)c1OC
IC50 (CAKI-1 [1]): 2.9 µM
Activity (CAKI-1 [1]): Dose-dependent-effect
fold change (FC) [2]: 0.65
EC50 (CAKI-1 [3]): 41.2 µM
IC50 (CAKI-1 [4]): 1.83 µM
viability at 24 h, 1 µM [5]: 105%
Activity (CAKI-1 [6]): Active
fold change (FC) (CAKI-1 [7]): 0.64
fold change (FC) [8]: 0.12
IC50 [9]: 9.67 µM
viability at 24 h, 5 µM [10]: 75.3%
fold change (FC) [11]: 0.22
viability at 24 h, 1 µM [12]: 89.2%
Activity (CAKI-1 [13]): Active
viability at 10 µM (CAKI-1 [14]): 35.8%
fold change (FC) (CAKI-1 [15]): 10.69
viability at 10 µM (CAKI-1 [16]): 38.5%
fold change (FC) (CAKI-1 [17]): 3.76
fold change (FC) (CAKI-1 [18]): 0.5
viability at 24 h, 5 µM [19]: 70.6%
Activity (CAKI-1 [20]): Active

CNC(=O)N1CCN(c2ccc(Nc3ncc(C)c(Nc4cccc(S(=O)(=O)NC(C)(C)C)c4)n3)cc2)CC1
viability at 10 µM (CAKI-1 [14]): 40.6%

COc1cc(Nc2ncc(C)c(Nc3ccc(N4CCN(C)CC4)cc3)n2)cc(OC)c1OC
viability at 10 µM (CAKI-1 [14]): 39.9%

Cc1cnc(Nc2cccc(S(=O)(=O)N3CCOCC3)c2)nc1Nc1cccc(S(=O)(=O)NC(C)(C)C)c1
viability at 10 µM (CAKI-1 [14]): 60.6%

Cc1ccc(Nc2nc(Nc3ccc(N4CCN(C)CC4)cc3)ncc2C)cc1S(N)(=O)=O
viability at 10 µM (CAKI-1 [14]): 34.7%

COc1cnccc1Nc1nc(-c2nn(Cc3c(F)cc(OCCO)cc3F)c3ccccc23)ncc1OC
IC50 (CAKI-1 [1]): 10.4 µM
Activity (CAKI-1 [1]): Dose-dependent-effect
fold change (FC) [2]: 1.33
EC50 (CAKI-1 [3]): 15.9 µM
IC50 (CAKI-1 [4]): 24.4 µM
Activity (CAKI-1 [6]): inactive
fold change (FC) (CAKI-1 [7]): 1.03
fold change (FC) [8]: 0.73
IC50 [9]: > 100 µM
fold change (FC) [11]: 0.65
Activity (CAKI-1 [21]): Time-dependent-effect
Activity (CAKI-1 [13]): inactive
viability at 10 µM (CAKI-1 [14]): 57.8%
fold change (FC) (CAKI-1 [15]): 1.23
viability at 10 µM (CAKI-1 [16]): 49.7%
fold change (FC) (CAKI-1 [17]): 2.89
fold change (FC) (CAKI-1 [18]): 0.62
Activity (CAKI-1 [20]): inactive

COc1cccc(Nc2ncc(C)c(Nc3cccc(S(=O)(=O)NC(C)(C)C)c3)n2)c1OC
viability at 10 µM (CAKI-1 [14]): 78%

C=CC(=O)N1CCN(c2ccc(Nc3ncc(C)c(Nc4cccc(S(=O)(=O)NC(C)(C)C)c4)n3)cc2)CC1
viability at 10 µM (CAKI-1 [14]): 44.6%

Cc1cnc(Nc2ccc(N3CCN(C(=O)c4cccc(F)c4)CC3)cc2)nc1Nc1cccc(S(=O)(=O)NC(C)(C)C)c1
viability at 10 µM (CAKI-1 [14]): 37.3%

Cc1cnc(Nc2ccc(N3CCN(C(=O)Nc4ccccc4C(F)(F)F)CC3)cc2)nc1Nc1cccc(S(=O)(=O)NC(C)(C)C)c1
viability at 10 µM (CAKI-1 [14]): 39.7%

COc1ncnc(NS(=O)(=O)c2ccc(Nc3ncc(C)c(Nc4cccc(S(=O)(=O)NC(C)(C)C)c4)n3)cc2)c1OC
viability at 10 µM (CAKI-1 [14]): 104%

Cc1ccc(Nc2ncc(C)c(Nc3cccc(S(=O)(=O)NC(C)(C)C)c3)n2)cc1Nc1nccc(-c2cccnc2)n1
viability at 10 µM (CAKI-1 [14]): 77%

Cc1cnc(Nc2ccc(N3CCN(C(=O)N4CCCC4)CC3)cc2)nc1Nc1cccc(S(=O)(=O)NC(C)(C)C)c1
viability at 10 µM (CAKI-1 [14]): 43.1%

Cc1ccc(Nc2ncc(C)c(Nc3cccc(S(=O)(=O)NC(C)(C)C)c3)n2)cc1S(N)(=O)=O
viability at 10 µM (CAKI-1 [14]): 43.2%

Cc1cnc(Nc2ccc(N3CCN(C(=O)N(C)c4ccccc4)CC3)cc2)nc1Nc1cccc(S(=O)(=O)NC(C)(C)C)c1
viability at 10 µM (CAKI-1 [14]): 44.5%

COc1ccccc1NC(=O)N1CCN(c2ccc(Nc3ncc(C)c(Nc4cccc(S(=O)(=O)NC(C)(C)C)c4)n3)cc2)CC1
viability at 10 µM (CAKI-1 [14]): 48.4%

Cc1cn(-c2cc(Nc3ncc(C)c(Nc4cccc(S(=O)(=O)NC(C)(C)C)c4)n3)cc(C(F)(F)F)c2)cn1
viability at 10 µM (CAKI-1 [14]): 49.6%

Cc1cnc(Nc2ccc(N3CCN(C)CC3)cc2)nc1Nc1cccc(S(=O)(=O)NC(C)(C)C)c1C
viability at 10 µM (CAKI-1 [14]): 52.1%

COc1cc(Nc2ncc(C)c(Nc3cccc(S(=O)(=O)N4CCOCC4)c3)n2)cc(OC)c1
viability at 10 µM (CAKI-1 [14]): 45.4%

Cc1cnc(Nc2ccc(N3CCN(C(=O)N(C)C)CC3)cc2)nc1Nc1cccc(S(=O)(=O)NC(C)(C)C)c1
viability at 10 µM (CAKI-1 [14]): 36.2%

Cc1cc(NS(=O)(=O)c2ccc(Nc3ncc(C)c(Nc4cccc(S(=O)(=O)NC(C)(C)C)c4)n3)cc2)no1
viability at 10 µM (CAKI-1 [14]): 95.5%

COc1cc(Nc2ncc(C)c(Nc3cccc(S(=O)(=O)NC(C)(C)C)c3)n2)cc(OC)c1
IC50 (CAKI-1 [4]): 2.79 µM
viability at 10 µM (CAKI-1 [14]): 46.5%

Cc1cnc(Nc2cccc(S(=O)(=O)NC(C)(C)C)c2)nc1Nc1cccc(S(=O)(=O)NC(C)(C)C)c1
viability at 10 µM (CAKI-1 [14]): 64.7%

COc1ccc(Nc2ncc(C)c(Nc3cccc(S(=O)(=O)NC(C)(C)C)c3)n2)cc1OC
viability at 10 µM (CAKI-1 [14]): 36.6%

Cc1cnc(Nc2ccc(N3CCN(C(=O)Nc4ccccc4F)CC3)cc2)nc1Nc1cccc(S(=O)(=O)NC(C)(C)C)c1
viability at 10 µM (CAKI-1 [14]): 46.7%

Cc1ccccc1NC(=O)N1CCN(c2ccc(Nc3ncc(C)c(Nc4cccc(S(=O)(=O)NC(C)(C)C)c4)n3)cc2)CC1
viability at 10 µM (CAKI-1 [14]): 45%

Cc1cnc(Nc2ccc(Oc3ccc(Cl)cc3)nc2)nc1Nc1cccc(S(=O)(=O)NC(C)(C)C)c1
viability at 10 µM (CAKI-1 [14]): 87.7%

COc1ccc(Nc2ncc(C)c(Nc3cccc(S(=O)(=O)NC(C)(C)C)c3)n2)c(OC)c1
viability at 10 µM (CAKI-1 [14]): 66.5%

Cc1cnc(Nc2ccccc2P(C)(C)=O)nc1Nc1cccc(S(=O)(=O)NC(C)(C)C)c1
viability at 10 µM (CAKI-1 [14]): 84.4%

COc1cc(Nc2ncc(C)c(Nc3cccc(S(=O)(=O)NC4CCC4)c3)n2)cc(OC)c1OC
viability at 10 µM (CAKI-1 [14]): 33%

C#CCN1CCN(c2ccc(Nc3ncc(C)c(Nc4cccc(S(=O)(=O)NC(C)(C)C)c4)n3)cc2)CC1
viability at 10 µM (CAKI-1 [14]): 41.2%

Cc1ccc(Nc2ncc(C)c(Nc3cccc(S(=O)(=O)NC(C)(C)C)c3)n2)cc1Nc1nc(-c2cccnc2)cs1
viability at 10 µM (CAKI-1 [14]): 43.5%

Cc1cnc(Nc2ccc(OCc3cccc(F)c3)c(Cl)c2)nc1Nc1cccc(S(=O)(=O)NC(C)(C)C)c1
viability at 10 µM (CAKI-1 [14]): 96.1%

Cc1cnc(Nc2ccc(N3CCN(S(=O)(=O)c4ccccc4)CC3)cc2)nc1Nc1cccc(S(=O)(=O)NC(C)(C)C)c1
viability at 10 µM (CAKI-1 [14]): 83.8%

COc1cc(Nc2ncc(C)c(Nc3cccc(S(=O)(=O)NC(C)(C)C)c3)n2)c(Cl)cc1Cl
viability at 10 µM (CAKI-1 [14]): 108%

Cc1cc(Nc2ncc(Cl)c(Nc3ccccc3S(=O)(=O)C(C)C)n2)c(OC(C)C)cc1C1CCNCC1 [CERITINIB]
IC50 [9]: 13.1 µM

COc1cc(Nc2ncc(C)c(Nc3cccc(S(=O)(=O)NC4CCC4)c3)n2)cc(OC)c1
viability at 10 µM (CAKI-1 [14]): 42%

Cc1cnc(Nc2ccc(OCCCN3CCOCC3)cc2)nc1Nc1cccc(S(=O)(=O)NC(C)(C)C)c1
viability at 10 µM (CAKI-1 [14]): 41.9%

COc1ccc(S(=O)(=O)N2CCN(c3ccc(Nc4ncc(C)c(Nc5cccc(S(=O)(=O)NC(C)(C)C)c5)n4)cc3)CC2)cc1OC
viability at 10 µM (CAKI-1 [14]): 73.8%
